# ChEMBL document CHEMBL3608296, “Synthesis of sulfonamides incorporating piperazinyl-ureido moieties and their carbonic anhydrase I, II, IX and XII inhibitory activity” (Bioorg Med Chem Lett, 2015)
# How the values were obtained:
# [1] = biological target: T1, Carbonic anhydrase 9 (Homo sapiens, UniProt Q16790)
# Description: Inhibition of human carbonic anhydrase 9 preincubated for 15 mins by stopped flow CO2 hydration method
# [2] = biological target: T1, Carbonic anhydrase 9; settings: at 0.01 µM
# Description: Inhibition of human carbonic anhydrase 9 at 10^-8 M preincubated for 15 mins by stopped flow CO2 hydration method relative to control
# [3] = biological target: T1, Carbonic anhydrase 9; settings: at 0.1 µM
# Description: Inhibition of human carbonic anhydrase 9 at 10^-7 M preincubated for 15 mins by stopped flow CO2 hydration method relative to control
# [4] = biological target: Carbonic anhydrase 12 (Homo sapiens) (UniProt O43570); settings: at 0.001 µM
# Sequence of Carbonic anhydrase 12 (Homo sapiens) (O43570 whole entry): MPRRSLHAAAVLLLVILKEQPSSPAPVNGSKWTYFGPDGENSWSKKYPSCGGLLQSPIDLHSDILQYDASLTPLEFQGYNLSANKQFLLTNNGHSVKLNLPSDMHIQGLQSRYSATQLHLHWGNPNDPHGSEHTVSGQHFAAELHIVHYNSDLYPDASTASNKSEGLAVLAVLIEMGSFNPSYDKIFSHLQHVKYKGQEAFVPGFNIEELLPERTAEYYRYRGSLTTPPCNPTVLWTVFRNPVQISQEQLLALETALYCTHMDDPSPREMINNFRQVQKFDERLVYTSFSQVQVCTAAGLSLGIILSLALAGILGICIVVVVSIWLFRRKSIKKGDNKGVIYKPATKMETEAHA
# Description: Inhibition of human carbonic anhydrase 12 at 10^-9 M preincubated for 15 mins by stopped flow CO2 hydration method relative to control
# [5] = biological target: T1, Carbonic anhydrase 9; settings: at 0.001 µM
# Description: Inhibition of human carbonic anhydrase 9 at 10^-9 M preincubated for 15 mins by stopped flow CO2 hydration method relative to control
# [6] = biological target: Carbonic anhydrase 12 (Homo sapiens) (UniProt O43570); settings: at 0.1 µM
# Description: Inhibition of human carbonic anhydrase 12 at 10^-7 M preincubated for 15 mins by stopped flow CO2 hydration method relative to control
# [7] = biological target: Carbonic anhydrase 12 (Homo sapiens) (UniProt O43570); settings: at 0.01 µM
# Description: Inhibition of human carbonic anhydrase 12 at 10^-8 M preincubated for 15 mins by stopped flow CO2 hydration method relative to control
# [8] = biological target: T1, Carbonic anhydrase 9; settings: at 1 µM
# Description: Inhibition of human carbonic anhydrase 9 at 10^-6 M preincubated for 15 mins by stopped flow CO2 hydration method relative to control
# [9] = biological target: Carbonic anhydrase 12 (Homo sapiens) (UniProt O43570); settings: at 1 µM
# Description: Inhibition of human carbonic anhydrase 12 at 10^-6 M preincubated for 15 mins by stopped flow CO2 hydration method relative to control
# [10] = biological target: Carbonic anhydrase 1 (Homo sapiens, UniProt P00915); experiment: Inhibition of human carbonic anhydrase 1 preincubated for 15 mins by stopped flow CO2 hydration method
# Sequence of Carbonic anhydrase 1 (P00915 whole entry): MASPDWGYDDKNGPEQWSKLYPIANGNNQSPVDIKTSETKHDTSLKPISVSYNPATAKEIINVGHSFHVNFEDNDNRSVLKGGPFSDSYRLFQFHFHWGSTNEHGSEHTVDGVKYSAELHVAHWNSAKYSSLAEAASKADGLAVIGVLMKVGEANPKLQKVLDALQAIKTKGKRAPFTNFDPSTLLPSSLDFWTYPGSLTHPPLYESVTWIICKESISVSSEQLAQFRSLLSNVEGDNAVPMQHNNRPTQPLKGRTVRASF
compound,measurement,setting,value
NS(=O)(=O)c1ccc(NC(=O)N2CCN(c3ccc(F)cc3)CC2)cc1,Ki,[1],0.0099 µM
NS(=O)(=O)c1ccc(NC(=O)N2CCN(C(=O)COc3ccc(Cl)cc3)CC2)cc1,inhibition,[2],47%
same,inhibition,[3],48%
same,inhibition,[4],30%
same,inhibition,[5],36%
same,inhibition,[6],49%
same,inhibition,[7],47%
same,inhibition,[8],52%
same,inhibition,[9],52%
NS(=O)(=O)c1ccc(NC(=O)N2CCN(c3cccc(Cl)c3)CC2)cc1,Ki,[1],0.233 µM
NS(=O)(=O)c1ccc(NC(=O)N2CCN(C(=O)Cc3ccc(Cl)cc3)CC2)cc1,inhibition,[2],45%
same,inhibition,[3],47%
same,inhibition,[4],34%
same,inhibition,[5],37%
same,inhibition,[6],47%
same,inhibition,[7],40%
same,inhibition,[8],51%
same,inhibition,[9],51%
NS(=O)(=O)c1ccc(NC(=O)N2CCN(Cc3ccccc3)CC2)cc1,Ki,[1],0.462 µM
NS(=O)(=O)c1ccc(NC(=O)N2CCN(c3ccc(Cl)cc3)CC2)cc1,Ki,[1],0.32 µM
same,Ki,[10],> 10 µM
NS(=O)(=O)c1ccc(NC(=O)N2CCN(c3ncccc3C(F)(F)F)CC2)cc1,Ki,[1],0.28 µM
COc1cccc(N2CCN(C(=O)Nc3ccc(S(N)(=O)=O)cc3)CC2)c1,Ki,[1],0.0396 µM
N#Cc1cccnc1N1CCN(C(=O)Nc2ccc(S(N)(=O)=O)cc2)CC1,Ki,[1],0.202 µM
COc1ccccc1N1CCN(C(=O)Nc2ccc(S(N)(=O)=O)cc2)CC1,Ki,[1],0.237 µM
NS(=O)(=O)c1ccc(NC(=O)N2CCN(c3ccc(C(F)(F)F)cn3)CC2)cc1,Ki,[1],0.514 µM
COc1cc(CC(=O)N2CCN(C(=O)Nc3ccc(S(N)(=O)=O)cc3)CC2)cc(OC)c1O,inhibition,[2],41%
same,inhibition,[3],52%
same,inhibition,[4],34%
same,inhibition,[5],37%
same,inhibition,[6],49%
same,inhibition,[7],45%
same,inhibition,[8],55%
same,inhibition,[9],51%
NS(=O)(=O)c1ccc(NC(=O)N2CCN(c3ccc(Cl)c(Cl)c3)CC2)cc1,Ki,[1],0.268 µM
CC(C)(C)c1ccc(N2CCN(C(=O)Nc3ccc(S(N)(=O)=O)cc3)CC2)cc1,Ki,[1],0.129 µM
NS(=O)(=O)c1ccc(NC(=O)N2CCN(C(=O)Cc3ccccc3)CC2)cc1,inhibition,[2],44%
same,inhibition,[3],49%
same,inhibition,[4],26%
same,inhibition,[5],38%
same,inhibition,[6],47%
same,inhibition,[7],44%
same,inhibition,[8],54%
same,inhibition,[9],51%
NS(=O)(=O)c1ccc(NC(=O)N2CCN(c3ccccc3)CC2)cc1,Ki,[1],0.0087 µM
NS(=O)(=O)c1ccc(NC(=O)N2CCN(C(=O)COc3ccc(Cl)cc3Cl)CC2)cc1,inhibition,[2],49%
same,inhibition,[3],51%
same,inhibition,[4],29%
same,inhibition,[5],33%
same,inhibition,[6],48%
same,inhibition,[7],43%
same,inhibition,[8],56%
same,inhibition,[9],51%
NS(=O)(=O)c1ccc(NC(=O)N2CCN(C(=O)Cc3ccc(O)cc3)CC2)cc1,inhibition,[2],45%
same,inhibition,[3],48%
same,inhibition,[4],33%
same,inhibition,[5],34%
same,inhibition,[6],49%
same,inhibition,[7],46%
same,inhibition,[8],52%
same,inhibition,[9],58%
COc1ccc(N2CCN(C(=O)Nc3ccc(S(N)(=O)=O)cc3)CC2)cc1,Ki,[1],0.409 µM
NS(=O)(=O)c1ccc(NC(=O)N2CCN(Cc3ccc(Cl)cc3)CC2)cc1,Ki,[1],0.0396 µM
NS(=O)(=O)c1ccc(NC(=O)N2CCN(c3nccc(C(F)(F)F)n3)CC2)cc1,Ki,[1],0.134 µM
NS(=O)(=O)c1ccc(NC(=O)N2CCN(C(=O)COc3ccccc3)CC2)cc1,inhibition,[2],35%
same,inhibition,[3],53%
same,inhibition,[4],36%
same,inhibition,[5],22%
same,inhibition,[6],49%
same,inhibition,[7],46%
same,inhibition,[8],55%
same,inhibition,[9],51%
NS(=O)(=O)c1ccc(NC(=O)N2CCN(C(=O)Cc3ccc(Cl)cc3Cl)CC2)cc1,inhibition,[2],48%
same,inhibition,[3],49%
same,inhibition,[4],34%
same,inhibition,[5],38%
same,inhibition,[6],48%
same,inhibition,[7],42%
same,inhibition,[8],54%
same,inhibition,[9],51%
NS(=O)(=O)c1ccc(NC(=O)N2CCN(c3ccccn3)CC2)cc1,Ki,[1],0.487 µM
COc1ccc(CC(=O)N2CCN(C(=O)Nc3ccc(S(N)(=O)=O)cc3)CC2)cc1,inhibition,[2],47%
same,inhibition,[3],49%
same,inhibition,[4],34%
same,inhibition,[5],36%
same,inhibition,[6],49%
same,inhibition,[7],46%
same,inhibition,[8],55%
same,inhibition,[9],51%
